28 compounds from patent publication US10058550B2, “Methods of treating heart failure” (priority 2015, dated 2018) can be followed below.

Sequence of human APJ receptor (P35414 whole entry): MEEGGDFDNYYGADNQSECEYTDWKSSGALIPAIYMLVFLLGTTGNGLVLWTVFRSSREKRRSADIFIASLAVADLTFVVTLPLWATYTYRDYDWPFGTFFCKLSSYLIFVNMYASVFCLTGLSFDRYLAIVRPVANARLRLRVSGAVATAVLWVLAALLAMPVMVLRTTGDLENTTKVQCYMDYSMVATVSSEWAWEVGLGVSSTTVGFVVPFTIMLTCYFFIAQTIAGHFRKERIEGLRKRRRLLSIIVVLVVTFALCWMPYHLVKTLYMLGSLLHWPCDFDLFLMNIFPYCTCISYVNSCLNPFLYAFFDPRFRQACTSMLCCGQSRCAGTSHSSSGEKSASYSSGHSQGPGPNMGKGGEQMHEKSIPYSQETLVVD

This experiment addresses human APJ receptor (Homo sapiens (Human), UniProt P35414). The experiment is described as follows: biochemical. The experiment is classed as biochemical. The note with it: read-out: Activity hAPJ SPA EC50 IP. The gist of the method: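 Agonist-stimulated [35S]GTPγS (0.2 nM) binding was read by SPA after 90 min at room temperature. Buffer: 20 mM HEPES pH 7.5 with 5 mM MgCl2, 200 mM NaCl, 3 μM GDP, 0.1% BSA; membranes were from a stable human APJ CHO line. EC50 values are averages of independent runs, fitted by non-linear regression.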
Regarding `COc1cccc(OC)c1-n1c(NS(=O)(=O)[C@H](C)[C@@H](OC)c2ncc(Cl)cn2)nnc1-c1cncc(C)c1` (single isomer, unassigned) [Example 559.0], the EC50 came out at 120 nM. Next, `COc1cccc(OC)c1-n1c(NS(=O)(=O)[C@H](C)[C@@H](OC)c2ncc(Cl)cn2)nnc1-c1cncc(C)c1` (single isomer, unassigned) [Example 560.0]: 0.88 nM; `CCO[C@@H](c1cnc(C)cn1)[C@@H](C)S(=O)(=O)Nc1nnc(-c2cncc(C)c2)n1-c1c(OC)cccc1OC` (single isomer, unassigned) [Example 565.0, (1S,2R)—N-(4-(2,6-dimethoxyphenyl)-5-(5-methyl-3-pyridinyl)-4H-1,2,4-triazol-3-yl)-1-ethoxy-1-(5-methyl-2-pyrazinyl)-2-propanesulfonamide or (1R,2S)—N-(4-(2,6-dimethoxyphenyl)-5-(5-methyl-3-pyridinyl)-4H-1,2,4-triazol-3-yl)-1-ethoxy-1-(5-methyl-2-pyrazinyl)-2-propanesulfonamide]: 100 nM; `CCO[C@@H](c1cnc(C)cn1)[C@@H](C)S(=O)(=O)Nc1nnc(-c2cncc(C)c2)n1-c1c(OC)cccc1OC` (single isomer, unassigned) [Example 566.0, (1S,2R)—N-(4-(2,6-dimethoxyphenyl)-5-(5-methyl-3-pyridinyl)-4H-1,2,4-triazol-3-yl)-1-ethoxy-1-(5-methyl-2-pyrazinyl)-2-propanesulfonamide or (1R,2S)—N-(4-(2,6-dimethoxyphenyl)-5-(5-methyl-3-pyridinyl)-4H-1,2,4-triazol-3-yl)-1-ethoxy-1-(5-methyl-2-pyrazinyl)-2-propanesulfonamide]: 62 nM. Regarding `COc1cccc(OC)c1-n1c(NS(=O)(=O)[C@H](C)[C@@H](O)c2cnc(C)cn2)nnc1-c1cncc(C)c1` (single isomer, unassigned) [Example 568.0, (1S,2R)—N-(4-(2,6-dimethoxyphenyl)-5-(5-methyl-3-pyridinyl)-4H-1,2,4-triazol-3-yl)-1-hydroxy-1-(5-methyl-2-pyrazinyl)-2-propanesulfonamide or (1R,2S)—N-(4-(2,6-dimethoxyphenyl)-5-(5-methyl-3-pyridinyl)-4H-1,2,4-triazol-3-yl)-1-hydroxy-1-(5-methyl-2-pyrazinyl)-2-propanesulfonamide], the EC50 worked out at 7.1 nM. As to `COc1cccc(OC)c1-n1c(NS(=O)(=O)[C@H](C)[C@@H](O)c2cnc(C)cn2)nnc1-c1cncc(C)c1` (single isomer, unassigned) [Example 569.0, (1S,2R)—N-(4-(2,6-dimethoxyphenyl)-5-(5-methyl-3-pyridinyl)-4H-1,2,4-triazol-3-yl)-1-hydroxy-1-(5-methyl-2-pyrazinyl)-2-propanesulfonamide or (1R,2S)—N-(4-(2,6-dimethoxyphenyl)-5-(5-methyl-3-pyridinyl)-4H-1,2,4-triazol-3-yl)-1-hydroxy-1-(5-methyl-2-pyrazinyl)-2-propanesulfonamide], the EC50 came to 0.26 nM. `COc1cccc(-c2nnc(NS(=O)(=O)[C@@H](C)[C@H](O)c3cnc(C)cn3)n2-c2c(OC)cccc2OC)n1` (single isomer, unassigned) [Example 577.0, (1R,2S)—N-(4-(2,6-dimethoxyphenyl)-5-(6-methoxy-2-pyridinyl)-4H-1,2,4-triazol-3-yl)-1-hydroxy-1-(5-methyl-2-pyrazinyl)-2-propanesulfonamide or (1S,2R)—N-(4-(2,6-dimethoxyphenyl)-5-(6-methoxy-2-pyridinyl)-4H-1,2,4-triazol-3-yl)-1-hydroxy-1-(5-methyl-2-pyrazinyl)-2-propanesulfonamide]: the EC50 was determined as 0.24 nM. Next, `COc1cccc(-c2nnc(NS(=O)(=O)[C@@H](C)[C@H](O)c3cnc(C)cn3)n2-c2c(OC)cccc2OC)n1` (single isomer, unassigned) [Example 578.0, (1R,2S)—N-(4-(2,6-dimethoxyphenyl)-5-(6-methoxy-2-pyridinyl)-4H-1,2,4-triazol-3-yl)-1-hydroxy-1-(5-methyl-2-pyrazinyl)-2-propanesulfonamide or (1S,2R)—N-(4-(2,6-dimethoxyphenyl)-5-(6-methoxy-2-pyridinyl)-4H-1,2,4-triazol-3-yl)-1-hydroxy-1-(5-methyl-2-pyrazinyl)-2-propanesulfonamide]: 2.7 nM; `COc1cccc(-c2nnc(NS(=O)(=O)[C@@H](C)[C@@H](O)c3ncc(C)cn3)n2-c2c(OC)cccc2OC)n1` (single isomer, unassigned) [Example 583.0]: 0.19 nM. Turning to `CCO[C@@H](c1ncc(Cl)cn1)[C@H](C)S(=O)(=O)Nc1nnc(-c2cncc(C)c2)n1-c1c(OC)cccc1OC` (single isomer, unassigned) [Example 609.0], the EC50 was 9.4 nM.

As to `CCO[C@@H](c1ncc(Cl)cn1)[C@H](C)S(=O)(=O)Nc1nnc(-c2cncc(C)c2)n1-c1c(OC)cccc1OC` (single isomer, unassigned) [Example 611.0], the EC50 was 0.19 nM.

With `CCO[C@@H](c1ncc(Cl)cn1)[C@H](C)S(=O)(=O)Nc1nnc(-c2cncc(C)c2)n1-c1c(OC)cccc1OC` (single isomer, unassigned) [Example 612.0], the EC50 was determined as 13 nM.

For the compound `COc1cccc(OC)c1-n1c(NS(=O)(=O)[C@@H](C)[C@H](OC)c2ccc(F)cc2C#N)nnc1-c1cncc(C)c1` (single isomer, unassigned) [Example 623.0], the 50% effective concentration (EC50) was found to be 130 nM. Under `COc1cccc(OC)c1-n1c(NS(=O)(=O)[C@@H](C)[C@@H](OC(C)C)c2ncc(C)cn2)nnc1-c1cccnc1` (single isomer, unassigned) [Example 627.0, (1R,2R)-N-(4-(2,6-dimethoxyphenyl)-5-(pyridin-3-yl)-4H-1,2,4-triazol-3-yl)-1-isopropoxy-1-(5-methylpyrimidin-2-yl)propane-2-sulfonamide or (1S,2S)-N-(4-(2,6-dimethoxyphenyl)-5-(pyridin-3-yl)-4H-1,2,4-triazol-3-yl)-1-isopropoxy-1-(5-methylpyrimidin-2-yl)propane-2-sulfonamide] stands 1.1 nM; under `COc1cccc(OC)c1-n1c(NS(=O)(=O)[C@@H](C)[C@@H](C)n2cc(C)cn2)nnc1-c1cncc(C)c1` (single isomer, unassigned) [Example 650.0], 39 nM.

As to `COc1cccc(OC)c1-n1c(NS(=O)(=O)[C@@H](C)[C@@H](C)n2cc(C)cn2)nnc1-c1cncc(C)c1` (single isomer, unassigned) [Example 651.0], the EC50 turned out to be 85 nM. Next, `COc1cccc(OC)c1-n1c(NS(=O)(=O)[C@@H](C)[C@@H](C)n2cc(C)cn2)nnc1-c1cncc(C)c1` (single isomer, unassigned) [Example 652.0]: 0.43 nM; `CCOc1cccc(OC)c1-n1c(NS(=O)(=O)[C@@H](C)[C@H](OC)c2ncc(C)cn2)nnc1-c1cccc(OC)n1` (single isomer, unassigned) [Example 664.0, (1R,2S,P)—N-(4-(2-ethoxy-6-methoxyphenyl)-5-(6-methoxy-2-pyridinyl)-4H-1,2,4-triazol-3-yl)-1-methoxy-1-(5-methyl-2-pyrimidinyl)-2-propanesulfonamide or (1R,2S,M)-N-(4-(2-ethoxy-6-methoxyphenyl)-5-(6-methoxy-2-pyridinyl)-4H-1,2,4-triazol-3-yl)-1-methoxy-1-(5-methyl-2-pyrimidinyl)-2-propanesulfonamide]: 0.31 nM; `COc1cnc([C@H](O)[C@@H](C)S(=O)(=O)Nc2nnc(-c3cccnc3)n2-c2c(OC)cccc2OC)cn1` (single isomer, unassigned) [Example 706.0, (1S,2R)-N-(4-(2,6-dimethoxyphenyl)-5-(3-pyridinyl)-4H-1,2,4-triazol-3-yl)-1-hydroxy-1-(5-methoxy-2-pyrazinyl)-2-propanesulfonamide or (1R,2S)-N-(4-(2,6-dimethoxyphenyl)-5-(3-pyridinyl)-4H-1,2,4-triazol-3-yl)-1-hydroxy-1-(5-methoxy-2-pyrazinyl)-2-propanesulfonamide]: 0.34 nM. Under `COc1ccnc(OC)c1-n1c(NS(=O)(=O)[C@@H](C)[C@H](OC)c2ccc(Cl)cn2)nnc1-c1cccnc1` (single isomer, unassigned) [Example 712.0] stands 0.9 nM; under `COc1cccc(OC)c1-n1c(NS(=O)(=O)[C@@H](C)[C@H](OC)C2CCC2)nnc1-c1cncc(C)c1` (single isomer, unassigned) [Example 719.0], 44 nM; under `COc1cccc(-c2nnc(NS(=O)(=O)[C@@H](C)[C@@H](O)C3CC(F)(F)C3)n2-c2c(OC)cccc2OC)n1` (single isomer, unassigned) [Example 720.0], 35 nM. Under `COc1cccc(-c2nnc(NS(=O)(=O)[C@@H](C)[C@@H](O)C3CC(F)(F)C3)n2-c2c(OC)cccc2OC)n1` (single isomer, unassigned) [Example 722.0] stands 1.7 nM; under `COc1cccc(-c2nnc(NS(=O)(=O)[C@@H](C)[C@@H](O)C3CC(F)(F)C3)n2-c2c(OC)cccc2OC)n1` (single isomer, unassigned) [Example 723.0], 2.5 nM. As to `COc1cccc(OC)c1-n1c(NS(=O)(=O)[C@@H](C)[C@H](OC)C2CC(C)(C)C2)nnc1-c1cncc(C)c1` (single isomer, unassigned) [Example 724.0], the EC50 came out at 220 nM. On to `COc1cccc(OC)c1-n1c(NS(=O)(=O)[C@@H](C)[C@H](OC)C2CC(C)(C)C2)nnc1-c1cncc(C)c1` (single isomer, unassigned) [Example 725.0], for which the EC50 was found to be 36 nM. For the compound `COc1cccc(OC)c1-n1c(NS(=O)(=O)[C@@H](C)[C@H](OC)C2CC(C)(C)C2)nnc1-c1cncc(C)c1` (single isomer, unassigned) [Example 726.0], the EC50 was found to be 7.5 nM. In the case of `COc1cccc(OC)c1-n1c(NS(=O)(=O)[C@@H](C)[C@H](OC)C2CC(C)(C)C2)nnc1-c1cncc(C)c1` (single isomer, unassigned) [Example 727.0], the EC50 came out at 200 nM.

A word on the EC50: it is the concentration needed to bring the measured effect to its halfway point.
